A short description of series [1]: Solubility determination in water. Type of series: physicochemical. The settings on record: 25° C., semi-quantitative. As for the experimental part:
Solubility in water at 25° C. was measured semi-quantitatively at a threshold of 5 g per 100 mL. All the homoharringtonine salts described in the below examples, unless otherwise stated, are soluble at this threshold. Homoharringtonine base itself is soluble at a threshold lower than 0.1 g per mL.

For series [2], the system named is MDA-MB-468. As to the kind of experiment: Testing on breast cancer cell lines, sulforhodamine B (SRB) cell viability assay. The settings on record: MDA-MB-468 breast cancer cells, preliminary screening, read-out: M DA-MB-468 (BC) IC50. The class given is cell-based, human. As for the experimental part: Operating Procedure were performed as described in the recent paper of Yakhni et al [Yakhni AM J CANCER RES 2019; 9(5) in press "Homoharringtonine, on approved anti-leukemia drug, suppresses triple negative breast cancer growth through a rapid reduction of anti-apoptotic protein abundance"]
The cell lines used in this study were MDA-MB-231 (ATCC® HTB-26™), MDA-MB-468 (ATCC® HTB-132™), MDA-MB-157 (ATCC® HTB-24™) and CAL-51. Those lines were chosen to represent the BRCA1/2 non-mutated TNBC transcriptomic subtypes, currently most in need of efficacious treatment due to lower sensibility of BRCA1 wild-type TNBC to the DNA-damaging chemotherapy (Masuda et al., Clin Cancer Res. 2013, p5533; Jiang et al., PLoS Med. 2016, pe1002193; Park et al. ESMO Open. 2018, pe000357). CAL-51 line represents the mesenchymal transcriptomic subtype whereas MDA-MB-157 and MDA-MB-231 represent the mesenchymal stem-like subtype (Lehmann et al. J Clin Invest. 2011, p2750). MDA-MB-468 was used as a model of aggressive, PTEN-negative TNBC, with hyperactivated EGFR signaling pathway due to EGFR amplification (Filmus et al., Biochem Biophys Res Commun. 1985, p898). MDA-MB-468 transcriptome classifies it into the basal-like 1 subtype (49). The MDA lines were purchased from the American Type Culture Collection (ATCC, Manassas, VA, USA). The CAL-51 was kindly provided by Dr Gerard Milano, from the Centre Antoine Lacassagne, Nice, France, where the line has been established (Gioanni et al., Br J Cancer 1990, p8). After initial expansion, the cell line stock vials were conserved, in liquid nitrogen, at the Biological Resource Center of Jean Perrin Comprehensive Cancer Center (biobank ID BB-0033-00075, Clermont-Ferrand, France). The MDA cell lines were cultured in the Leibovitz L-15 medium, whereas CAL-51 line was maintained in DMEM (both media from Invitrogen Life Technologies, Carlsbad, CA, USA). The media were supplemented with 10% heat-inactivated fetal bovine serum and […] gentamicin. CAL-51 line was kept at 37°C, in a humidified atmosphere with 5% CO2; the MDA lines were kept under the same conditions, however, without CO2, in a free gas exchange with atmospheric air. All cell lines were maintained in monolayer culture, in the sub-confluent status, with no more 30 passages of the cells thawed from the stock vial.
Homoharringtonine was supplied by LeukePharma Inc. (Houston, TX, USA) as water-soluble, crystalline tartaric acid salt. Initial stock solution of HHT-tartrate was prepared at 10 mM in sterile deionized water, aliquoted and kept at -80°C. For each experiment, a fresh HHT solution was prepared by dissolving the HHT stock in phosphate-buffered saline (PBS, GIBCO™, Invitrogen, Cergy-Pontoise, France).
Cell viability was assessed using the sulforhodamine B (SRB) assay (Sigma-Aldrich, St Louis, MO, USA) according to the method described by Vichai and Kirtikara (Nat Protoc. 2006, p1112). Cells were seeded in 96-well plates, at 5x10^3 or 1x10^3 cells/well (the MDA cell lines and CAL-51, respectively), left overnight to adhere and then treated with growing concentrations of HHT for 24h, 48h or 72h. After incubation with the drug, cells were washed twice with PBS and left for 72 h in the corresponding complete culture medium. Then the cells were fixed with trichloroacetic acid (final concentration 10%) at 4°C for 1 h, followed with plate washing with water five times, air drying and staining with 0.4% SRB dissolved in 1% acetic acid, at room temperature, for 30 min. The plates were subsequently washed four times with 1% acetic acid to remove unbound stain. To solubilize the protein-bound dye, 10 mM Tris base solution was added to each well. The cell viability, estimated through the present protein biomass, was determined by measuring optical density of the dye, using a spectrophotometer at wavelength of 540 nm (BMG Labtech, Ortenberg, Germany).
Preliminary screening using these tumor cell lines are gathered in table 1.

Series [3] relates to HL-60 cell line. As to the kind of experiment: Testing on HL-60 leukemia cell line (MTT cytotoxicity). Type of series: cell-based, human. The settings on record: HL-60 cells, medium with 20% fetal bovine serum, preliminary screening, read-out: HL60 (APL) IC50. On the procedure:
(§1) Retinoates of harringtonines described in this invention were tested on K562 cell line which is derived from the pleural effusion of a person with chronic myelogenous leukemia (CML, bcr-abl positive) in terminal blast crises (Lozzio and Lozzio, Blood, 1975, p321). The cell line was purchased from ATCC (American Tissue Culture Collection) and grown in RPMI medium supplemented with 10% heat-inactivated fetal calf serum, 2 mmol/L glutamine, […] penicillin and […] streptomycin. All tested products were initially dissolved in 2N HCl (pH=2) (alkaloid base) or in aqueous solvent (salt) or in DMSO (retinoids), supplemented with ultrasound treatment during 1 h. Working concentrations were made by dilution in culture medium (pH 7). Cells in exponential growth phase were placed into 96-microwell plates in concentration 3x10^4/mL (total volume 200 µL/well) and incubated with drugs for 72 h at 37° C. in 5% CO2 humidified atmosphere. Following incubation, 28 µL of MTT 3-(4,5 dimethylthiazol-2-yl)-2,5 tetrazolium bromide] dye solution (Sigma, St. Louis, Mo.) was added to each well. During the following 6 h of incubation at 37° C., the purple formazan product was formed by conversion of the yellow MTT salt in the mitochondria of the viable cells. The resulting precipitate was dissolved in DMSO and the amount of converted MTT was quantified in an ELISA reader (MR 5000, Dynatech). Each product was tested in triplicate (3x8 wells). Every test contained at least one plate with HHT as control, added in the same concentration as the tested products.
Retinoates of harringtonines described in this invention were tested on HL-60 cell line, derived from acute promyelocytic leukemia (APL) cells. HL-60 is a promyelocytic cell line derived by S.J. Collins, et al. (Proc. Natl. Acad. Sci. USA 1978 p2458). Peripheral blood leukocytes were obtained by leukopheresis from a person with APL (Gallagher R, et al. Blood 1978, p713) The cell line was purchased from ATCC (American Tissue Culture Collection) and the base growth medium was also completed with fetal bovine serum but at a final concentration of 20%, otherwise the same method than the one of example 10 was used.
Preliminary screening using this tumor cell lines are gathered in table 1.

The test system of series [4] is K562 cell line. As to the kind of experiment: Testing on K562 leukemia cell line (MTT cytotoxicity). Type of series: cell-based, human. The settings on record: K562 cells, 72 h incubation, preliminary screening, read-out: K562 (CML) IC50. On the procedure:
as §1

The values that follow come from patent EP3763715A1, “HARRINGTONINES SALTS, IN PARTICULAR RETINOATES, THEIR PROCESS OF PREPARATION AND THEIR USES IN THE TREATMENT OF LEUKEMIAS, CANCERS, AUTOIMMUNE, SKIN, ALZHEIMER'S AND INFLAMMATORY BOWEL DISEASES AND VIRAL INFECTIONS, COMBINED WITH MYELOPOIESIS STIMULATING AGENTS” (Robin, Jean-Pierre, priority 2019, dated 2021).

As a reminder, the solubility is how much of the substance goes into solution per volume. High values mean a readily soluble substance, low ones a poorly soluble substance. One may read the IC50 as the concentration at which inhibition is half-maximal.

`COC(=O)C[C@](O)(CCCC(C)(C)O)C(=O)O[C@@H]1C(OC)=C[C@]23CCCN2CCc2cc4c(cc2[C@H]13)OCO4` [Homoharringtonine base, Homoharringtonine] yielded a solubility in series [1] of less than 100 mg/mL.
In the case of `CC1(C)C(=O)C(C)(C)c2cc(C(=O)Nc3ccc(C(=O)O)cc3)ccc21.COC(=O)CC(O)(CCCC(C)(C)O)C(=O)O[C@@H]1C(OC)=C[C@]23CCCN2CCc2cc4c(cc2[C@H]13)OCO4` (stereo partly drawn) [Example 15, Butanedioic acid, 2-hydroxy-2-(4-hydroxy-4-methylpentyl)-, 1-[(1S,3aR,14bS)-1,5,6,8,9,14b-hexahydro-2-methoxy-4H-cyclopenta[a][1,3]dioxolo[4,5-h]pyrrolo[2,1-b][3]benzazepin-1-yl]4-methyl ester, 4-[[(2,3-Dihydro-1,1,3,3-tetramethyl-2-oxo-1H-inden-5-yl)carbonyl]amino]benzoate], the results for the IC50 in series [2], in series [3] and in series [4] were less than 50 nM, less than 100 nM and less than 50 nM, respectively.
For OP5215 acitretinate [Example 25], the IC50 was less than 20 nM in series [2], less than 50 nM in series [3] and less than 20 nM in series [4].
Turning to `CC1(C)CCC(C)(C)c2cc(NC(=O)c3ccc(C(=O)O)cc3)ccc21.COC(=O)CC(O)(CCCC(C)(C)O)C(=O)OC1C(OC)=CC23CCCN2CCc2cc4c(cc2C13)OCO4` (stereo not shown) [Example 5, homoharringtonine tamibarotenoate], the IC50 in series [2] was less than 20 nM; in series [3], less than 50 nM; in series [4], less than 20 nM.
For the compound OP5215 adarotenoate [Example 28], the figures for the concentration for half-maximal inhibition (IC50) in series [2], in series [3] and in series [4] were less than 10 nM, less than 20 nM and less than 10 nM, respectively.
Regarding `CC1=C(/C=C/C(C)=C/C=C/C(C)=C/C(=O)O)C(C)(C)CCC1.COC(=O)C[C@](O)(CCCC(C)(C)O)C(=O)O[C@@H]1C(OC)=C[C@]23CCCN2CCc2cc4c(cc2[C@H]13)OCO4` (relative stereo) [Example 1, homoharringtonine all-trans-retinoate], the results for the concentration for half-maximal inhibition (IC50) in series [2], in series [3] and in series [4] were less than 50 nM, less than 100 nM and less than 50 nM, respectively.
For OP5215 tamibarotenoate [Example 26], the concentration for half-maximal inhibition (IC50) in series [2] was less than 10 nM; in series [3], less than 20 nM; in series [4], less than 10 nM.
Regarding `CC1(C)CC=C(c2cnc3ccccc3c2)c2cc(C(=O)Nc3ccc(C(=O)O)cc3)ccc21.COC(=O)CC(O)(CCCC(C)(C)O)C(=O)O[C@@H]1C(OC)=C[C@]23CCCN2CCc2cc4c(cc2[C@H]13)OCO4` (stereo partly drawn) [Example 10, Butanedioic acid, 2-hydroxy-2-(4-hydroxy-4-methylpentyl)-, 1-[(1S,3aR,14bS)-1,5,6,8,9,14b-hexahydro-2-methoxy-4H-cyclopenta[c][1,3]dioxolo[4,5-h]pyrrolo[2,1-b][3]benzazepin-1-yl]4-methyl ester, 4-[[[5,6-Dihydro-5,5-dimethyl-8-(3-quinolinyl)-2-naphthalenyl]carbonyl]amino]benzoate], the values for the concentration for half-maximal inhibition (IC50) in series [2], in series [3] and in series [4] were less than 50 nM, less than 100 nM and less than 50 nM, respectively.
Take `COC(=O)CC(O)(CCCC(C)(C)O)C(=O)O[C@@H]1C(OC)=C[C@]23CCCN2CCc2cc4c(cc2[C@H]13)OCO4.O=C(O)c1ccc2cc(-c3ccc(O)c(C45CC6CC(CC(C6)C4)C5)c3)ccc2c1` (stereo partly drawn) [Example 11, Butanedioic acid, 2-hydroxy-2-(4-hydroxy-4-methylpentyl)-, 1-[(1S,3aR,14bS)-1,5,6,8,9,14b-hexahydro-2-methoxy-4H-cyclopenta[a][1,3]dioxolo[4,5-h]pyrrolo[2,1-b][3]benzazepin-1-yl]4-methyl ester, 6-[3-(1-adamantyl)-4-hydroxyphenyl]-2-naphtalenecarboxylate]: the IC50 in series [2] was less than 50 nM; in series [3], less than 100 nM; in series [4], less than 50 nM.
For `CC1=C(/C=C/C(C)=C/C=C/C(C)=C/C(=O)O)C(C)(C)CCC1.COC(=O)C[C@@]1(C(=O)O[C@@H]2C(OC)=C[C@]34CCCN3CCc3cc5c(cc3[C@H]24)OCO5)CCCC(C)(C)O1` (relative stereo) [Example 18, Anhydrohomoharringtonine all-trans-retinoate], the IC50 was less than 50 nM in series [2], less than 100 nM in series [3] and less than 50 nM in series [4].
